{"source": "paper PMC3806465", "about": "“Discovery and Evaluation of Thiazinoquinones as Anti-Protozoal Agents” (Marine Drugs, 2013)", "key": {"[1]": {"test_system": "Trypanosoma brucei rhodesiense, STIB 900 strain, trypomastigotes stage", "test": "In vitro activity against T. b. rhodesiense", "format": "cell-based", "conditions": "for pIC50: Trypanosoma brucei, STIB 900, trypomastigotes, average of two independent assays, read-out: IC50 T. b. rhod.", "protocol": "(§1) The in vitro activities against the protozoan parasites T.b. rhodesiense, T. cruzi, L. donovani, and P. falciparum and cytotoxicity assessment against L6 cells were determined as reported elsewhere."}, "[2]": {"test_system": "Trypanosoma cruzi, Tulahuen C4 strain, amastigotes stage", "test": "In vitro activity against T. cruzi", "format": "cell-based", "conditions": "Trypanosoma cruzi, TULAHUEN, Tulahuen C4, amastigotes; average of two independent assays; read-out: IC50 T. cruzi", "protocol": "as §1"}, "[3]": {"test_system": "Leishmania donovani, MHOM-ET-67/L82 strain, amastigote/axenic stage", "test": "In vitro activity against L. donovani", "format": "cell-based", "conditions": "Leishmania donovani, MHOM-ET-67/L82, axenic amastigotes; average of two independent assays; read-out: IC50 L. don.", "protocol": "as §1"}, "[4]": {"test_system": "Plasmodium falciparum, K1 strain, IEF stage", "test": "In vitro activity against P. falciparum K1", "format": "cell-based", "conditions": "for pIC50: Plasmodium falciparum, K1 dual drug resistant strain, IEF stage, average of two independent assays, read-out: IC50 P. falc. K1; for SI Pf: Selectivity index for P. falciparum = IC50 L6/IC50 Pf", "protocol": "as §1"}, "[5]": {"test_system": "L6 rat skeletal myoblast cell line", "test": "Cytotoxicity against L6 cells", "format": "cell-based", "conditions": "Rattus norvegicus, Myoblast, cytotoxicity, L6 rat skeletal myoblasts; average of two independent assays; read-out: IC50 L6", "protocol": "as §1"}, "[6]": {"test_system": "GFP-transfected P. berghei strain ANKA", "test": "In vivo anti-malarial efficacy in P. berghei infected mice", "design": "species or system NMRI mice", "protocol": "Furan carboxylic acid analogue 16 was selected for preliminary proof-of-principle in vivo evaluation in Plasmodium berghei infected mice. […] Switching to an oral dosing experiment (100 mg/kg once per day for 4 days) yielded a 47% reduction of parasitaemia. Although not considered significant, these levels of activity for both ip and po dosing clearly identifies heterocyclic dioxothiazinoquinone carboxylic acids to be a novel anti-malarial drug scaffold warranting further structure-activity relationship studies.\nIn vivo anti-malarial activity was assessed as previously described. Groups of three female NMRI mice (20–22 g) were intravenously infected with 2 × 10^7 parasitized erythrocytes on day 0 with GFP-transfected P. berghei strain ANKA [24]. Compounds were formulated in 100% DMSO, diluted 10-fold in distilled water and administered intraperitoneally in a volume of 10 ml kg^−1 on four consecutive days (4, 24, 48 and 72 h post infection). Control experiments used DMSO-H2O vehicle alone. Parasitemia was determined on day 4 post infection (24 h after last treatment) by FACS analysis. Activity was calculated as the difference between the mean per cent parasitaemia for the control (n = 5 mice) and treated groups expressed as a per cent relative to the control group. The survival of the animals was usually monitored up to 30 days: a compound was considered curative if the animal survived to day 30 after infection with no detectable parasites. In vivo efficacy studies in mice were conducted according to the rules and regulations for the protection of animal rights (“Tierschutzverordnung”) of the Swiss “Bundesamt für Veterinärwesen”. They were approved by the veterinary office of Canton Basel-Stadt, Switzerland."}, "[7]": {"conditions": "in vivo, 150 mg/kg"}}, "note": "pIC50: −log10 of the molar value."}
{"smiles": "CCCCCCCCNC(=O)c1ccc2c(n1)C(=O)C1=C(C2=O)S(=O)(=O)C=CN1", "note": "[Compound 8c, N-n-Octyl-5,10-dioxo-5,10-dihydro-4H-[1,4]thiazino[2,3-g]quinoline-7-carboxamide 1,1-Dioxide]", "values": [{"measurement": "pIC50", "setting": "[1]", "result": 5.62}, {"measurement": "pIC50", "setting": "[2]", "result": 4.38}, {"measurement": "pIC50", "setting": "[3]", "result": 4.28}, {"measurement": "pIC50", "setting": "[4]", "result": 6.01}, {"measurement": "SI Pf", "setting": "[4]", "result": 6}, {"measurement": "pIC50", "setting": "[5]", "result": 5.19}, {"measurement": "melting point", "result": "280 °C (dec.)"}]}
{"smiles": "O=C(NCc1ccccc1)c1ccc2c(n1)C(=O)C1=C(C2=O)S(=O)(=O)C=CN1", "note": "[Compound 8d, N-Benzyl-5,10-dioxo-5,10-dihydro-4H-[1,4]thiazino[2,3-g]quinoline-7-carboxamide 1,1-Dioxide]", "values": [{"measurement": "pIC50", "setting": "[1]", "result": 5.38}, {"measurement": "pIC50", "setting": "[2]", "result": 3.80}, {"measurement": "pIC50", "setting": "[3]", "result": "< 3.60"}, {"measurement": "pIC50", "setting": "[4]", "result": 5.33}, {"measurement": "SI Pf", "setting": "[4]", "result": 7}, {"measurement": "pIC50", "setting": "[5]", "result": 4.47}, {"measurement": "melting point", "result": "280 °C (dec.)"}]}
{"smiles": "O=C(NCCc1ccccc1)c1ccc2c(n1)C(=O)C1=C(C2=O)S(=O)(=O)C=CN1", "note": "[Compound 8e, N-Phenethyl-5,10-dioxo-5,10-dihydro-4H-[1,4]thiazino[2,3-g]quinoline-7-carboxamide 1,1-Dioxide]", "values": [{"measurement": "pIC50", "setting": "[1]", "result": 6.17}, {"measurement": "SI (T. brucei rhodesiense)", "setting": "[1]; selectivity towards T. brucei rhodesiense versus L6", "result": 78}, {"measurement": "pIC50", "setting": "[2]", "result": 3.85}, {"measurement": "pIC50", "setting": "[3]", "result": 3.80}, {"measurement": "pIC50", "setting": "[4]", "result": 5.19}, {"measurement": "SI Pf", "setting": "[4]", "result": 8}, {"measurement": "pIC50", "setting": "[5]", "result": 4.28}, {"measurement": "melting point", "result": "290 °C (dec.)"}]}
{"smiles": "O=C(NCCCc1ccccc1)c1ccc2c(n1)C(=O)C1=C(C2=O)S(=O)(=O)C=CN1", "note": "[Compound 8f, N-(3-Phenylpropyl)-5,10-dioxo-5,10-dihydro-4H-[1,4]thiazino[2,3-g]quinoline-7-carboxamide 1,1-Dioxide]", "values": [{"measurement": "pIC50", "setting": "[1]", "result": 5.23}, {"measurement": "pIC50", "setting": "[2]", "result": 4.23}, {"measurement": "pIC50", "setting": "[3]", "result": "< 3.62"}, {"measurement": "pIC50", "setting": "[4]", "result": 5.92}, {"measurement": "SI Pf", "setting": "[4]", "result": 5}, {"measurement": "pIC50", "setting": "[5]", "result": 5.19}, {"measurement": "melting point", "result": "230 °C (dec.)"}]}
{"smiles": "CC(C)=CCC/C(C)=C/CNC(=O)c1ccc2c(n1)C(=O)C1=C(C2=O)S(=O)(=O)C=CN1", "note": "[Compound 8g, (E)-N-(3,7-Dimethylocta-2,6-dien-1-yl)-5,10-dioxo-5,10-dihydro-4H-[1,4]thiazino[2,3-g] quinoline-7-carboxamide 1,1-Dioxide]", "values": [{"measurement": "pIC50", "setting": "[1]", "result": 5.60}, {"measurement": "pIC50", "setting": "[2]", "result": 4.38}, {"measurement": "pIC50", "setting": "[3]", "result": 3.82}, {"measurement": "pIC50", "setting": "[4]", "result": 5.96}, {"measurement": "SI Pf", "setting": "[4]", "result": 4}, {"measurement": "pIC50", "setting": "[5]", "result": 5.31}, {"measurement": "melting point", "result": "280 °C (dec.)"}]}
{"smiles": "C#CCNC(=O)c1ccc2c(n1)C(=O)C1=C(C2=O)S(=O)(=O)C=CN1", "note": "[Compound 8h, N-(Prop-2-yn-1-yl)-5,10-dioxo-5,10-dihydro-4H-[1,4]thiazino[2,3-g]quinoline-7-carboxamide 1,1-Dioxide]", "values": [{"measurement": "pIC50", "setting": "[1]", "result": 5.00}, {"measurement": "pIC50", "setting": "[2]", "result": 3.82}, {"measurement": "pIC50", "setting": "[3]", "result": 3.64}, {"measurement": "pIC50", "setting": "[4]", "result": 5.77}, {"measurement": "SI Pf", "setting": "[4]", "result": 29}, {"measurement": "pIC50", "setting": "[5]", "result": 4.30}, {"measurement": "melting point", "result": "230 °C (dec.)"}]}
{"smiles": "COCCNC(=O)c1ccc2c(n1)C(=O)C1=C(C2=O)S(=O)(=O)C=CN1", "note": "[Compound 8i, N-(2-Methoxyethyl)-5,10-dioxo-5,10-dihydro-4H-[1,4]thiazino[2,3-g] quinoline-7-carboxamide 1,1-Dioxide]", "values": [{"measurement": "pIC50", "setting": "[1]", "result": 4.89}, {"measurement": "pIC50", "setting": "[2]", "result": 3.85}, {"measurement": "pIC50", "setting": "[3]", "result": 3.82}, {"measurement": "pIC50", "setting": "[4]", "result": 5.82}, {"measurement": "SI Pf", "setting": "[4]", "result": 67}, {"measurement": "pIC50", "setting": "[5]", "result": 4.00}, {"measurement": "melting point", "result": "200 °C (dec.)"}]}
{"smiles": "O=C(O)c1cc2c(s1)C(=O)C1=C(C2=O)S(=O)(=O)C=CN1", "note": "[Compound 12, 5,9-Dioxo-5,9-dihydro-4H-thieno[2′,3′:4,5]benzo[1,2-b][1,4]thiazine-7-carboxylic Acid 1,1-Dioxide]", "values": [{"measurement": "pIC50", "setting": "[1]", "result": 5.66}, {"measurement": "pIC50", "setting": "[2]", "result": 3.68}, {"measurement": "pIC50", "setting": "[3]", "result": "< 3.54"}, {"measurement": "pIC50", "setting": "[4]", "result": 7.46}, {"measurement": "SI Pf", "setting": "[4]", "result": 4000}, {"measurement": "pIC50", "setting": "[5]", "result": 3.85}, {"measurement": "melting point", "result": "290 °C (dec.)"}]}
{"smiles": "CCOC(=O)c1cc2c(o1)C(=O)C1=C(C2=O)S(=O)(=O)CCN1", "note": "[Compound 15, Ethyl 5,9-Dioxo-3,4,5,9-tetrahydro-2H-benzofuro[5,6-b][1,4]thiazine-7-carboxylate 1,1-Dioxide]", "values": [{"measurement": "pIC50", "setting": "[1]", "result": 5.96}, {"measurement": "pIC50", "setting": "[2]", "result": 5.33}, {"measurement": "pIC50", "setting": "[3]", "result": 4.40}, {"measurement": "pIC50", "setting": "[4]", "result": 6.96}, {"measurement": "SI Pf", "setting": "[4]", "result": 46}, {"measurement": "pIC50", "setting": "[5]", "result": 5.29}, {"measurement": "melting point", "result": 277, "unit": "°C"}]}
{"smiles": "O=C(O)c1cc2c(o1)C(=O)C1=C(C2=O)S(=O)(=O)CCN1", "note": "[Compound 16, 5,9-Dioxo-3,4,5,9-tetrahydro-2H-benzofuro[5,6-b][1,4]thiazine-7-carboxylic Acid 1,1-Dioxide]", "values": [{"measurement": "pIC50", "setting": "[1]", "result": 5.12}, {"measurement": "pIC50", "setting": "[2]", "result": "< 3.52"}, {"measurement": "pIC50", "setting": "[3]", "result": "< 3.52"}, {"measurement": "pIC50", "setting": "[4]", "result": 6.92}, {"measurement": "SI Pf", "setting": "[4]", "result": 2400}, {"measurement": "pIC50", "setting": "[5]", "result": 3.54}, {"measurement": "reduction in parasitaemia", "setting": "[6]; ip 50 (mg/kg)/day for four days", "result": 85.7, "unit": "%"}, {"measurement": "mean survival time", "setting": "[6]; ip 50 (mg/kg)/day for four days, untreated control 4–6 days", "result": 9.6, "unit": "days"}, {"measurement": "reduction of parasitaemia", "setting": "[6]; oral 100 mg/kg once per day for 4 days", "result": 47, "unit": "%"}, {"measurement": "ip acute toxicity", "setting": "[7]", "result": "no toxicity"}]}
{"smiles": "O=C(O)c1cc2c(o1)C(=O)C1=C(C2=O)S(=O)(=O)C=CN1", "note": "[Compound 17, 5,9-Dioxo-5,9-dihydro-4H-benzofuro[5,6-b][1,4]thiazine-7-carboxylic Acid 1,1-Dioxide]", "values": [{"measurement": "pIC50", "setting": "[1]", "result": 5.57}, {"measurement": "pIC50", "setting": "[2]", "result": "< 3.52"}, {"measurement": "pIC50", "setting": "[3]", "result": 3.92}, {"measurement": "pIC50", "setting": "[4]", "result": 6.47}, {"measurement": "SI Pf", "setting": "[4]", "result": 560}, {"measurement": "pIC50", "setting": "[5]", "result": 3.72}, {"measurement": "melting point", "result": "280 °C (dec.)"}]}
